{
  "source": "patent US6448263B1",
  "about": "“Treatment of insulin resistance with growth hormone secretagogues” (Pfizer Inc., priority 1997, dated 2002)",
  "tested_on": "female Sprague-Dawley rats (Sham and Ovx)",
  "assay": "Female Rat Study: chronic oral treatment with a GHRP mimetic, non-fasting plasma insulin and metabolite levels",
  "assay_type": "in vivo",
  "details": "non-fasting blood at sacrifice",
  "protocol": "This study evaluates the effect of chronic treatment with a GHRP mimetic on weight, body composition and non-fasting plasma concentrations of glucose, insulin, lactate and lipids in estrogen-deficient and estrogenreplete female rats. Acute responsiveness of serum GH levels to i.v. administration of the GH releasing agent was assessed on the last day of dosing. Body weight was monitored weekly throughout the treatment period; additionally, body composition and plasma levels of glucose, insulin, lactate, cholesterol and triglycerides were assessed at the end of treatment.\nVirgin female Sprague-Dawley rats were obtained from Charles River Laboratories (Wilmington, Mass.) and underwent bilateral ovariectomy (Ovx) or sham-surgery (Sham) at approximately 12 weeks of age. For sham surgeries, ovaries were exteriorized and replaced into the abdominal cavity. Following surgery the rats were housed individually in 20 cm×32 cm×20 cm cages under standard vivarium conditions (about 24° C. with about 12 hours light/12 hours dark cycle). All rats were allowed free access to water and a pelleted commercial diet (Agway ProLab 3000, Agway Country Food, Inc., Syracuse, N.Y.). The experiment was conducted in accordance with NIH Guidelines for the Care and Use of Laboratory Animals.\nApproximately seven months post-surgery, Sham and Ovx rats were weighed and randomly assigned to groups. Rats were dosed daily by oral gavage with 1 mL of either vehicle (1% ethanol in distilled-deionized water), 0.5 mg/kg or 5 mg/kg of a growth hormone releasing agent for 90 days. Rats were weighed at weekly intervals throughout the study. Twenty-four hours after the last oral dose, the acute response of serum growth hormone (GH) to test agent was assessed by the following procedure. Rats were anesthetized with sodium pentobarbital 50 mg/kg. Anesthetized rats were weighed and a baseline blood sample (˜100 μl) was collected from the tail vein. Test agent (growth hormone releasing agent or vehicle) was then administered intravenously via the tail vein in 1 mL. Approximately ten minutes after injection, a second 100 μl blood sample was collected from the tail. Blood was allowed to clot at about 4° C., then centrifuged at 2000×g for about 10 minutes. Serum was stored at about −70° C. Serum growth hormone concentrations were determined by radioimmunoassay as previously described. Following this procedure, each anesthetized rat underwent whole body scanning by dual-energy X-ray absorptiometry (DEXA, Hologic QDR 1000/W, Waltham Mass.). A final blood sample was collected by cardiac puncture into heparinized tubes. Plasma was separated by centrifugation and stored frozen as described above.\nPlasma insulin is determined by radioimmunoassay using a kit from Binax Corp. (Portland, Me.). The interassay coefficient of variation is ≦10%. Plasma triglycerides, total cholesterol, glucose and lactate levels are measured using Abbott VP™ and VP Super System® Autoanalyzer (Abbott Laboratories, Irving, Texas), using the A-Gent™ Triglycerides, Cholesterol and Glucose Test reagent systems, and a lactate kit from Sigma, respectively. The plasma insulin, triglycerides, total cholesterol and lactate lowering activity of a growth hormone releasing peptide (GHRP) or GHRP mimetic such as a compound of formula I, are determined by statistical analysis (unpaired t-test) with the vehicle-treated control group.",
  "key": {"[1]": {"details": "Ovx rats, 0.5 mg/kg daily oral gavage for 90 days"}, "[2]": {"details": "Ovx rats, 5.0 mg/kg daily oral gavage for 90 days"}, "[3]": {"details": "Sham rats, 0.5 mg/kg daily oral gavage for 90 days"}, "[4]": {"details": "Sham rats, 5.0 mg/kg daily oral gavage for 90 days"}},
  "note": "Where a name gives a salt, the structure may show the parent alone.",
  "data": [
    {"smiles": "CN1N=C2CCN(C(=O)[C@@H](COCc3ccccc3)NC(=O)C(C)(C)N)C[C@@]2(Cc2ccccc2)C1=O", "note": "[2-amino-N-[2-(3a-(R)-benzyl-2-methyl-3-oxo-2,3,3a,4,6,7-hexahydro-pyrazolo[4,3-c]pyridin-5-yl)-1-(R)-(benzyloxymethyl)-2-oxo-ethyl]-isobutyramide L-tartaric acid salt]", "values": [
      {"measurement": "Cholesterol (mean plasma level)", "setting": "[1]", "value": 92.5, "unit": "mg/dL"},
      {"measurement": "Glucose (mean plasma level)", "setting": "[1]", "value": 179.7, "unit": "mg/dL"},
      {"measurement": "Insulin (mean plasma level)", "setting": "[1]", "value": "*78.7 uU/mL"},
      {"measurement": "Lactate (mean plasma level)", "setting": "[1]", "value": 3.6, "unit": "mg/dL"},
      {"measurement": "Triglyceride (mean plasma level)", "setting": "[1]", "value": 181.9, "unit": "mg/dL"},
      {"measurement": "Cholesterol (mean plasma level)", "setting": "[2]", "value": 102.2, "unit": "mg/dL"},
      {"measurement": "Glucose (mean plasma level)", "setting": "[2]", "value": 177.2, "unit": "mg/dL"},
      {"measurement": "Insulin (mean plasma level)", "setting": "[2]", "value": "*84.1 uU/mL"},
      {"measurement": "Lactate (mean plasma level)", "setting": "[2]", "value": 3.1, "unit": "mg/dL"},
      {"measurement": "Triglyceride (mean plasma level)", "setting": "[2]", "value": 158.4, "unit": "mg/dL"},
      {"measurement": "Cholesterol (mean plasma level)", "setting": "[3]", "value": 95.4, "unit": "mg/dL"},
      {"measurement": "Glucose (mean plasma level)", "setting": "[3]", "value": "*142.7 mg/dl"},
      {"measurement": "Insulin (mean plasma level)", "setting": "[3]", "value": 94.9, "unit": "uU/mL"},
      {"measurement": "Lactate (mean plasma level)", "setting": "[3]", "value": 3.7, "unit": "mg/dL"},
      {"measurement": "Triglyceride (mean plasma level)", "setting": "[3]", "value": 219.6, "unit": "mg/dL"},
      {"measurement": "Cholesterol (mean plasma level)", "setting": "[4]", "value": "*80.6 mg/dl"},
      {"measurement": "Glucose (mean plasma level)", "setting": "[4]", "value": "*139.9 mg/dl"},
      {"measurement": "Insulin (mean plasma level)", "setting": "[4]", "value": 95.7, "unit": "uU/mL"},
      {"measurement": "Lactate (mean plasma level)", "setting": "[4]", "value": "*3.2 mg/dl"},
      {"measurement": "Triglyceride (mean plasma level)", "setting": "[4]", "value": 227.2, "unit": "mg/dL"}
    ]}
  ]
}
